The record followed here is patent US20260373497A1, “MOLECULAR MACHINES STIMULATE INTERCELLULAR CALCIUM WAVES AND CAUSE MUSCLE CONTRACTION” (William Marsh Rice University, priority 2022, published 2026).

The subject of one data set is HEK293 cells. Kind of data set: Assessment of stimulation toxicity (apoptosis, necrosis, PI uptake). The data set is classed as cell-based. The source says: Assessment of Stimulation Toxicity: The purpose was to use MM to interact with cell signaling. However, several previous studies by the group have explored the same or similar molecules for inducing cell permeabilization and death (Santos et al., 2022; Alaya-Orozco et al., 2020; Gunasekera et al., 2020). These studies used minutes-long light doses rather than the millisecond-scale doses employed in this work. Nevertheless, assessing the effects of MM stimulation on cell viability remains imperative.
Potentially toxic effects of MM stimulation on cells were assessed in several ways. First, qualitative analysis of stimulated cells can be used to assess toxicity. For these experiments, HEK293 cells were treated with MM 1 and prepared as was typical for stimulation experiments.
Second, once a suitable window of stimulation power had been identified, the effects of stimulation on cells were compared to healthy cells and several positive controls representing mechanisms of cell death. For these experiments, cells were loaded with Fluo-4, CellMask cell membrane labeling dye, and MM 1 and were imaged in the presence of cell-impermeant viability dye propidium iodide (PI; 1 μg mL^−1). The onset of apoptotic cell death in imaged colonies was confirmed by the observation of pyknosis (cell shrinkage) (Hajnoczky et al., 2003), the uptake of small amounts of PI, and the enhanced fluorescence of Fluo-4 in the colony (FIG. 8A).
Finally, to account for potential aftereffects of stimulation, isolated HEK293 colonies were grew in a grid pattern by photolithographically patterning polydimethylsiloxane onto Ibidi imaging dishes. Colonies were seeded with 25,000 cells cm^−2. Two days after seeding, cells were treated with MM 1 and Fluo-4 using typical protocols (see Example 6), and 10 selected cells were stimulated in selected colonies. After 24 h, these colonies were imaged again in the presence of 1 μg mL^−1 PI to observe any effects of MM stimulation on growth, cell stress, or viability.

Data set [1] concerns primary rat cardiomyocytes. Kind of data set: Spiking, beating and contraction of primary cardiomyocytes after MM stimulation. Format: cell-based.
A further data set has as its system N2A cells. Kind of data set: MM-induced calcium responses in N2A cells. The data set is classed as cell-based. Particulars: 400 nm, 250 ms, 3.2×10^2 W cm^−2. The source says:
FIGS. 11A & 11B—ICW in N2A cells after stimulation with MM 1 and light. (a) Confocal images of N2A cells treated with MM 1 (blue) and calcium tracking dye (Fluo-4; green). The white circle in the top-left image depicts the area to which stimulus was delivered. The scale bar is 50 μm and applies to all images. (b) Fluo-4 fluorescence traces of N2A cells treated with MM 1 and stimulated with 250 ms pulse of 400 nm light delivered to a 5 μm diameter circular region of interest at 3.2×10^2 W cm^−2 stimulation power.
(§1) Cell Culture and Preparation of Cells for Microscopy: HEK293 cells were chosen as the principal model system due to their prevalence in electrophysiological interrogation. […] HEK293 cells, HeLa cells, and N2A cells were cultured in DMEM (10% FBS, 1% penicillin/streptomycin) and passaged at <90% confluence. […]
(§2) In Vitro Imaging and Stimulation: Cells were loaded in a Nikon A1-Rsi confocal system mounted on a widefield Ti-E fluorescence microscope. […] Laser stimulation for in vitro experiments was performed with a 400 nm photodiode laser (Coherent OBIS™ LX SF) operating in a fluorescence-recovery-after-photobleaching (FRAP) experiment mode, delivering up to 6.4×10^2 W cm^−2 at sample level. […] Fluo-4 fluorescence was collected for 30 s before and 2 min after stimulation. […]

A further data set concerns HeLa cells. Kind of data set: MM-induced calcium responses in HeLa cells. Format: cell-based. Particulars: 400 nm, 250 ms, 3.2×10^2 W cm^−2.
From the text: FIGS. 12A & 12B—ICW in HeLa cells after stimulation with MM 1 and light. (a) Confocal images of HeLa cells treated with MM 1 (blue) and Fluo-4 calcium tracking dye (green). The white circle in the bottom-left image depicts the area to which light stimulus was delivered. Scale bar is 50 μm and applies to all images. (b) Fluo-4 fluorescence traces of HeLa cells treated with MM 1 and stimulated with 250 ms pulse of 400 nm light delivered to a 5 μm diameter circular region of interest at 3.2×10^2 W cm^−2 stimulation power.
as §1, §2

The subject of another data set is C2C12 myoblasts. Kind of data set: MM-induced calcium release in C2C12 cells (Fluo-4). Conditions: MM 1, 1 s instead of 500 ms. Format: cell-based, mouse.

“Also recorded” adds a separate entry of the source.

For `CC1Cc2ccc3ccccc3c2C1=C1c2ccccc2Sc2cc(NCCN(C)C)ccc21` (stereo not drawn) [MM 1], in the data set with HEK293 cells (MM 1 8 μM, 3.2×10^2 W cm^−2 for 250 ms), the “Cell toxicity after typical stimulation” value was “cells recovered from stimulation and showed no signs of apoptosis or necrosis”. In the data set on HEK293 cells (MM 1, 3.2×10^2 W cm^−2 for 1 s, 30 min), the “Cell toxicity at reduced light dose” value was “strong calcium responses from cells without observable toxicity; also recorded: the calcium signal has returned to homeostatic levels, and the stimulated cell and surrounding cells display no apparent damage”. The “Cell toxicity at high light dose” value in the data set with HEK293 cells (MM 1, 6.4×10^2 W cm^−2 for 4 s) was “membrane blebbing and calcium accumulation over a 30 min period, indicating cell death; also recorded: membrane blebbing and runaway calcium accumulation; also recorded: the calcium signal has not returned to homeostasis, and membrane blebbing is apparent”. Further, the “PI uptake of stimulated colonies 24 h after stimulation” value in the data set with HEK293 cells (MM 1, 10 cells stimulated per colony, 1 μg mL^−1 PI) is recorded as “indistinguishable from untreated colonies”. The “Necrotic cell death under UV/DAPI-filter LED” value with HEK293 cells (MM 1, 395/25 nm, 166 mW cm^−2, 5 min) is listed as “Necrotic cell death was observed”. The “Contraction / beating of cardiomyocytes” value in data set [1] (400 nm, 250 ms, 5.1×10^2 W cm^−2) was “local contraction in the stimulated cell; also recorded: periodic beating in the stimulated cell and surrounding cell”. In addition, the “Firing rate of cardiomyocytes” value is ~ 0.8 spikes min^−1 cell^−1 in data set [1] (MM 1 + light in presence of U-73 10 μM, P<0.0001) and 5.1 spikes min^−1 cell^−1 in data set [1] (MM 1 + light, calcium-containing medium). Further, the “Spiking activity of cardiomyocytes” value in data set [1] (MM 1 + light, absence of extracellular calcium) is “did not exhibit any spiking activity”. Also, the “Calcium responses induced by MM 1 actuation” value in the data set on N2A cells and in the data set on HeLa cells was “also observed” each time. Also, the “Calcium release at longer stimulation” value in the data set with C2C12 myoblasts is on record as “larger calcium release”.
